Experiments:
[1] = test system: nontypeable Haemophilus influenzae; details: COPD alveolar macrophages, compared to vehicle
Procedure: (§1) Human alveolar macrophages were purified from individual BAL samples by centrifugation and seeded onto 6-well tissue culture plates. After incubation for 2 h, non-adherent cells were removed and the adherent cells were incubated with R, S-sulforaphane (5 μM; LKT Laboratories, Inc., St. Paul, Minn.) and or DMSO in RPMI 1640 culture medium with 10% FBS and 1% penicillin-streptomycin (Invitrogen, Carlsbad, Calif.). After 16-20 h, adherent cells were scraped, suspended in RPMI 1640 culture media and plated onto 96-well tissue culture plates for bacterial phagocytosis and clearance assays. […] For MARCO antibody-depletion, alveolar macrophages were incubated with human anti-MARCO antibody (1 μg/ml; (Hycult, Uden, The Netherlands) for 4 hours prior to bacterial challenge.
Sputum isolates of nontypeable H. influenzae and P. aeruginosa obtained from patients with COPD at the Department of Veterans Affairs, Western New York Healthcare System were used (S. Sethi, N. Evans, B. J. Grant, T. F. Murphy, N Engl J Med 347, 465 (Aug. 15, 2002); C. S. Berenson, M. A. Garlipp, L. J. Grove, J. Maloney, S. Sethi, J Infect Dis 194, 1375 (Nov. 15, 2006); T. F. Murphy et al., Am J Respir Crit Care Med 177, 853 (Apr. 15, 2008); T. F. Murphy, A. L. Brauer, A. T. Schiffmacher, S. Sethi, Am J Respir Crit Care Med 170, 266 (Aug. 1, 2004)). […]
(§2) Bacterial phagocytosis was quantified using a flow cytometry analysis.

[2] = test system: glucocorticoid receptor; test: Acetylated glucocorticoid receptor levels in alveolar macrophages; format: cell-based, human; details: compared to vehicle control
Procedure: All immunoblots were performed by using protocols as described previously (Barnes, P. J., N Engl J Med 343, 269-280 (2000)). Rabbit anti-HDAC2 antibody from Santa Cruz Biotechnology (Santa Cruz, Calif.) was used at 1:500 dilutions. Rabbit anti-5-nitroso-cysteine antibody from Alpha diagnostics was used at 1:500 dilutions. Rabbit anti-nitro-tyrosine antibody from Cell Signaling Technology, was used at 1:250 dilution. Rabbit anti-ubiquitin antibody from Santa Cruz Biotechnology (Santa Cruz, Calif.) was used at 1:1000 dilutions. Rabbit anti-GR antibody from Santa Cruz Biotechnology (Santa Cruz, Calif.) was used at a dilution of 1:1000. Rabbit anti-MMP9 antibody from Sigma Aldrich was used at 1:500 dilutions. Rabbit anti-acetyl-lysine antibody from Abcam was used at 1:750 dilutions. Rabbit anti-lamin-B1 from Santa Cruz Biotechnology (Santa Cruz, Calif.) was used at 1:1000 dilutions as a loading control. The Image J program was used for densitometry analyses.

[3] = test system: HDAC2; format: cell-based, human
Procedure: For inducing corticosteroid resistance, PMs were exposed to cigarette smoke condensate (CSC, 100 μg/ml; Murty Pharmaceuticals, Lexington, Ky.) for 16 h. Exposure to S-nitrosoglutathione (GSNO, 10 μM) was limited to 4 h. […] For assessing corticosteroid responsiveness, macrophages were incubated with dexamethasone (1 μM, Sigma) for 1 h followed by LPS (100 ng/ml, Sigma) for additional 4 h.
HDAC activity was measured using a fluorescent derivative of ε-acetyl-lysine from Enzo life sciences (Farmingdale, N.Y.) according to the manufacturer's recommendations. HDAC2 was immunoprecipitated for analysis of enzymatic activity.
Macrophage cell or lung tissue extracts were prepared by using 100 μL of immunoprecipitation buffer (50 mM Tris-HCl, pH 8.0, 150 mM NaCl, 1.0% Triton X-100, 0.5% NP-40, 0.1% SDS, 0.5% deoxycholate, and complete protease inhibitor cocktail) from Roche (Morristown, N.J.). The lysis mixture was incubated on ice for 15 minutes and microcentrifuged for 10 minutes at 4° C. Extracts were precleared with 20 μL protein A/G sepharose beads (a 50:50 mix) from Thermo scientific (Rockford, Ill.) and 2 μg of normal IgG. After microcentrifugation, 20 μL of protein A/G sepharose conjugated with 5 μg of antibody was used to precipitate HDAC2 (Santa Cruz Biotechnology, Santa Cruz, Calif.) overnight at 4° C. with rotation. The immune complexes were pelleted with gentle centrifugation, washed twice with 1 mL of immunoprecipitation buffer, and divided equally for the final wash for the activity assay and immunoblotting. For the HDAC assay, immunoprecipitates were resuspended in the activity assay buffer (50 mM TrisHCl, pH 8.0; 10% glycerol; 1 mM dithiothreitol; 0.1 mM EDTA, complete protease inhibitor cocktail). For HDAC2-specific western blotting, immune complexes were washed three times with the immunoprecipitation buffer and finally resuspended in Laemmli buffer for the SDS-PAGE.

[4] = test system: Pseudomonas aeruginosa; test: Phagocytosis assay, FITC-labeled PA, alveolar macrophages; format: cell-based, human
Procedure: as §1
Sputum isolates of nontypeable H. influenzae and P. aeruginosa obtained from patients with COPD at the Department of Veterans Affairs, Western New York Healthcare System were used (S. Sethi, N. Evans, B. J. Grant, T. F. Murphy, N Engl J Med 347, 465 (Aug. 15, 2002); C. S. Berenson, M. A. Garlipp, L. J. Grove, J. Maloney, S. Sethi, J Infect Dis 194, 1375 (Nov. 15, 2006); T. F. Murphy et al., Am J Respir Crit Care Med 177, 853 (Apr. 15, 2008); T. F. Murphy, A. L. Brauer, A. T. Schiffmacher, S. Sethi, Am J Respir Crit Care Med 170, 266 (Aug. 1, 2004)). For bacterial growth, H. influenzae was cultured on chocolate agar or grown in brain heart infusion broth supplemented with 20 μg/mlNAD and 10 μg/ml hemin at 35° C. in 5% CO2. P. aeruginosa was cultured on LB agar plates or in LB broth at 37° C. For FITC-labeling of bacteria, heat inactivated PA and NTHI (10^9 CFU/ml) were resuspended in 1 ml of labeling buffer (0.1 M NaHCO3, pH 9.2) and incubated with fluorescein isothiocyanate (FITC) (Sigma) under constant stiffing in the dark at room temperature for 1 h. Finally, bacteria were washed three times with PBS and dialyzed overnight against PBS. FITC-labeled bacteria were resuspended with PBS at a concentration of 10^9/ml.
as §2

## C[S+]([O-])CCCCN=C=S (centres unmarked) [sulforaphane]
[1]
  phagocytosis of FITC-labeled nontypeable Haemophilus influenzae: significantly enhanced phagocytosis
[2]
  levels of acetylated-glucocorticoid receptor: significant decrease in the levels of acetylated-glucocorticoid receptor
[3]; COPD alveolar macrophages, P<0.01 versus vehicle
  enzymatic activity of HDAC2: approximately 2 fold
[3]; in the presence of BSO
  HDAC2 activity: failed to increase HDAC2 activity
[3]; treatment after GSNO exposure of alveolar macrophages
  HDAC2 enzymatic activity: significantly increased HDAC2 activity
[4]; COPD alveolar macrophages, compared to vehicle
  phagocytosis of FITC-labeled Pseudomonas aeruginosa: significantly enhanced phagocytosis
[4]; Nrf2-siRNA transfected macrophages
  bacterial phagocytosis: failed to do so
[4]; alveolar macrophages transfected with control ssRNA
  bacterial phagocytosis: enhanced bacterial phagocytosis

Reference: patent US20130039928A1, “COMPOSITIONS AND METHODS FOR REVERSING CORTICOSTEROID RESISTANCE OR TREATING RESPIRATORY INFECTIONS” (priority 2010, published 2013)
